Laboratory results taken from article PMC2362811, “In vivo efficacy of XR9051, a potent modulator of P-glycoprotein mediated multidrug resistance” (British Journal of Cancer, 1999).
Like-named read-outs stand apart in the source and are kept apart here.

How the values were obtained:
[1] = tested on: P388/DX Johnson murine leukaemia; details: for survival, cytotoxic drug in the absence of XR9051: P388/DX Johnson-resistant leukaemia-bearing mice, cytotoxic drug alone; for survival of resistant leukaemia-bearing mice, combination vs cytotoxic drug alone: days 1-5, P < 0.01
[2] = tested on: P388/P-sensitive murine leukaemia; assay: In vivo efficacy, P388/P sensitive murine leukaemia model (survival); parameters: species or system mouse; details: for lifespan of tumour-bearing animals vs vehicle alone: vincristine 0.1 mg kg-1 i.p. days 1-5 or doxorubicin 2 mg kg-1 i.p. days 1, 4 and 7, P < 0.005
[3] = tested on: P388 cells transfected with the human MDR1 gene; details: ref Yang et al, 1994; cited from earlier work
P388/DX Johnson cells = details: the cell line used in our studies
[4] = tested on: H69/LX small cell lung carcinoma xenografts; assay type: in vivo
[5] = tested on: 2780AD ovarian carcinoma xenografts; assay type: in vivo
[6] = Plasma levels of XR9051 after single oral dose in Balb/c mice; assay type: in vivo; details: mouse
[7] = tested on: murine and human P-gp-expressing cell lines; parameters: method as in Dale et al, 1998; details: co-exposure, several murine and human P-gp-expressing cell lines; ref Dale et al, 1998; cited from earlier work
[8] = tested on: MC26 murine colon carcinoma; assay type: in vivo
[9] = Pharmacokinetics of XR9051 after single i.v. dose in Balb/c mice (plasma, liver, heart, brain; HPLC); assay type: in vivo, mouse; details: for half-life: two-compartment model
[10] = tested on: CH1/DOXr ovarian carcinoma xenografts; assay type: in vivo; details: for tumour growth rate compared with either drug alone: P < 0.01
in vivo = assay type: in vivo; parameters: maximum concentration in tumour tissue / maximum concentration in tumour tissue (molar) / concentrations in H69/LX4 MDR tumours over a 25 h period: unit not given here
MC26 cells = assay: In vitro sensitization of MC26 cells to doxorubicin; assay type: cell-based, mouse; details: 500 nM XR9051, in vitro (unpublished data)
[11] = single i.v. 20 mg kg-1, H69/LX4 SCLC xenograft-bearing athymic mice

## COc1cccc2c1C(=O)c1c(O)c3c(c(O)c1C2=O)C[C@@](O)(C(=O)CO)C[C@@H]3O[C@H]1C[C@H](N)[C@H](O)[C@H](C)O1 [doxorubicin, reference compound]
[1]
  survival, cytotoxic drug in the absence of XR9051: little or no effect on survival
[2]
  lifespan of tumour-bearing animals vs vehicle alone: increased the lifespan

## CC[C@]1(O)C[C@H]2CN(CCc3c([nH]c4ccccc34)[C@@](C(=O)OC)(c3cc4c(cc3OC)N(C=O)[C@H]3[C@@](O)(C(=O)OC)[C@H](OC(C)=O)[C@]5(CC)C=CCN6CC[C@]43[C@@H]65)C2)C1 [vincristine, reference compound]
[1]
  survival, cytotoxic drug in the absence of XR9051: little or no effect on survival
[3]
  resistance factor of cell line to vincristine: 22 fold
[2]
  lifespan of tumour-bearing animals vs vehicle alone: increased the lifespan
P388/DX Johnson cells
  resistance factor of cell line to vincristine: 70 fold

## COc1cc2c(cc1OC)CN(CCc1ccc(NC(=O)c3cccc(/C=c4\[nH]c(=O)/c(=C/c5ccccc5)n(C)c4=O)c3)cc1)CC2 [XR9051, N-(4-(2-(6,7-dimethoxy-1,2,3,4-tetrahydro-2-isoquinolyl)ethyl)phenyl)-3-((3Z,6Z)-6-benzylidene-1-methyl-2,5-dioxo-3-piperazinylidene)methylbenzamide]
[4]; XR9051 40 mg kg-1 i.p. or p.o. with doxorubicin (2 mg kg-1), P < 0.01
  potentiation of anti-tumour activity of doxorubicin: significantly potentiated the anti-tumour activity
[4]; XR9051 40 mg kg-1 i.p. or p.o. with vincristine 0.5 mg kg-1 i.p., P < 0.01
  potentiation of anti-tumour activity of vincristine: significantly potentiated the anti-tumour activity
[4]; XR9051 with vincristine or doxorubicin
  tolerability of combination schedules: well-tolerated
[1]; XR9051 alone by any route, mice bearing sensitive or resistant tumours
  survival, modulator alone: no effect on survival
[1]; XR9051 i.p. 5, 10 and 20 mg kg-1 with vincristine 0.1 mg kg-1 i.p., dose-dependent (data not shown)
  lifespan of resistant tumour-bearing animals: increase in lifespan
[1]; XR9051 i.v. 10, 20 or 40 mg kg-1 1 h before vincristine 0.1 mg kg-1 i.p.
  survival of resistant leukaemia-bearing mice, combination vs cytotoxic drug alone: significantly increased survival
[1]; XR9051 p.o. 60, 80 or 120 mg kg-1 1 h before vincristine 0.1 mg kg-1 i.p.
  survival of resistant leukaemia-bearing mice, combination vs cytotoxic drug alone: significantly increased survival
[1]; XR9051 with vincristine or doxorubicin (data not shown)
  toxicity of combination therapy as assessed by body weight loss: no significant increase in toxicity
[1]; xenograft and murine tumour models
  oral potency relative to i.v. administration: two- to three-fold less
[5]; XR9051 40 mg kg-1 with epirubicin, compared with sensitive 2780 tumours (Plumb et al, 1994)
  extent of reversal of resistance: full reversal of resistance
[5]; XR9051 i.p. 20-40 mg kg-1 2 h before and after epirubicin 10 mg kg-1 i.v., P < 0.01, dose related
  tumour growth rate compared with either drug alone: significantly reduced growth rate
[6]; Balb/c, oral, p.o. 50 mg kg-1 vs i.v., mice
  bioavailability: ~46%
[6]; po, p.o. 50 mg kg-1, Balb/c mice
  Tmax: ~3.4 h
[6]; po, p.o. 50 mg kg-1, Balb/c mice, read-out: AUC0-24 h
  AUC(0-t): 13500 ng·h/mL
[6]; po, p.o. 50 mg kg-1, Balb/c mice, read-out: Cmax in plasma
  Cmax: 1300 ng/mL
[6]; po, p.o. 50 mg kg-1, Balb/c mice, read-out: Cmax in plasma (molar)
  Cmax: 1800 nM
[7]
  concentration that fully reverses resistance to a range of cytotoxic drugs in vitro: 300 to 500 nM
[2]; P388/P-sensitive cells implanted i.p.
  survival time: 12 days
[2]; XR9051 20 or 40 mg kg-1 i.v. with vincristine or doxorubicin
  lifespan of sensitive tumour-bearing animals, co-administration with cytotoxic drug: did not further increase the lifespan
[8]; XR9051 alone, pilot experiments
  tumour growth inhibition, XR9051 alone: no significant inhibitory activity
[8]; XR9051 i.p. 20 mg kg-1 at 0 and 4 h with doxorubicin 5 mg kg i.v. at 1 h
  tumour growth on day 14 compared to cytotoxic drug alone: significant (P < 0.001) inhibition of tumour growth
[8]; XR9051 i.p. or p.o. with doxorubicin
  body weight gain between the various groups: no differences in body weight gain
[8]; XR9051 p.o. 40 mg kg-1 at 0 and 4 h with doxorubicin 5 mg kg i.v. at 1 h
  tumour growth on day 14 compared to cytotoxic drug alone: significant (P < 0.001) inhibition of tumour growth
[9]; i.v., between 20 and 100 mg kg-1 doses (data not shown)
  linearity of intravenous pharmacokinetic parameters: linear
[9]; mouse, in vivo, iv, single i.v. 20 mg kg-1, Balb/c mice, read-out: steady-state volume of distribution
  Vd: 9.6 L/kg
[9]; mouse, iv, single i.v. 20 mg kg-1, Balb/c mice, brain, read-out: ratio between AUC for tissue:plasma, brain
  Kp: 0.3
[9]; mouse, iv, single i.v. 20 mg kg-1, Balb/c mice, heart, read-out: ratio between AUC for tissue:plasma, heart
  Kp: 16.9
[9]; mouse, iv, single i.v. 20 mg kg-1, Balb/c mice, liver, read-out: ratio between AUC for tissue:plasma, liver
  Kp: 79.6
[9]; mouse, iv, single i.v. 20 mg kg-1, Balb/c mice, plasma, read-out: AUC from time 0- for plasma
  AUC: 11900 ng·h/mL
[9]; mouse, iv, single i.v. 20 mg kg-1, Balb/c mice, brain, read-out: apparent elimination half-life in brain (converted)
  half-life: 1.15 h
[9]; mouse, iv, single i.v. 20 mg kg-1, Balb/c mice, heart, read-out: apparent elimination half-life in heart (converted)
  half-life: 2 h
[9]; mouse, iv, single i.v. 20 mg kg-1, Balb/c mice, liver, read-out: apparent elimination half-life in liver (converted)
  half-life: 4.93 h
[9]; mouse, iv, single i.v. 20 mg kg-1, Balb/c mice, plasma, read-out: apparent elimination half-life in plasma (converted)
  half-life: 3.96 h
[10]; XR9051 10 mg kg-1 i.v. with Paclitaxel 20 mg kg-1 i.p., days 0, 2 and 4
  tumour growth rate compared with either drug alone: significantly reduced tumour growth rate
[10]; XR9051 20 mg kg-1 i.v. with etoposide 30 mg kg-1 i.p., days 0, 5 and 11
  tumour growth rate compared with either drug alone: significantly reduced tumour growth rate
[10]; XR9051 i.v. with Paclitaxel or etoposide (data not shown)
  tolerability of combination schedules as judged by changes in body weights: well-tolerated
In vivo; athymic, mouse, tumour (H69/LX4 SCLC xenograft), iv, single i.v. 20 mg kg-1, H69/LX4 tumour, read-out: AUC0- in tumour tissue
  AUC: 57100 ng·h/mL
In vivo; athymic, mouse, tumour (H69/LX4 SCLC xenograft), iv, single i.v. 20 mg kg-1, H69/LX4 tumour, read-out: apparent elimination half-life in tumour tissue (converted)
  half-life: 8.79 h
In vivo; athymic, mouse, tumour (H69/LX4 SCLC xenograft), iv, single i.v. 20 mg kg-1, H69/LX4 tumour, read-out: time of maximum concentration in tumour tissue
  Tmax: 1.5 h
In vivo; single i.v. 20 mg kg-1, 25 h period
  concentrations in H69/LX4 MDR tumours over a 25 h period: 0.6-9.4
In vivo; [11]
  maximum concentration in tumour tissue: 6.94
  maximum concentration in tumour tissue (molar): 9.4
MC26 cells
  enhancement of sensitivity of MC26 cells to doxorubicin: three-fold
